# Data published in patent US20110244569A1, “METHOD OF INDUCING PROLIFERATION AND/OR DIFFERENTIATION OF NEURAL PRECURSOR CELLS BY INTRODUCING PROLACTIN OR WNT3A TO ACTIVATE LATENT NEURAL PRECURSOR CELLS” (priority 2008, published 2011).
# Counter-ions that a name gives are not always drawn.
# What was measured:
# [1] = system: primary hippocampal cells; assay: Primary neurosphere culture, hippocampus; assay type: cell-based, mouse; settings: for generation of very large neurospheres (>250 μm) passaged long-term / increase in number of hippocampal neurospheres generated / number of hippocampal neurospheres: 1 ng/mL Wnt3a or 2 ng/mL PRL; for number of hippocampal neurospheres: n=3; for neurosphere number, aged hippocampus: aged (18 month old) hippocampus, n=4
# Description: The tissue was enzymatically digested with 0.1% trypsin-EDTA (Gibco/Invitrogen, Eugene, Oreg.) for 7 minutes at 37° C., followed by a wash with 0.014% w/v trypsin inhibitor (type I-S from soybean; Sigma-Aldrich Australia, Sydney, Australia) dissolved in Hepes-buffered minimum essential medium (HEM), which consisted of minimum essential medium (Gibco/Invitrogen) supplemented with 16 mM HEPES (Sigma-Aldrich Australia) and 100 units/ml penicillin/streptomycin (Gibco/Invitrogene). The tissue was centrifuged at 100 rcf for 7 minutes, following which the pellet was resuspended in 1 ml neurosphere growth medium, mechanically triturated until smooth, then filtered through a 40 μm cell sieve (Falcon/BD Biosciences Australia, North Ryde, Australia). The neurosphere growth medium consisted of mouse NeuroCult™ NSC Basal Medium plus mouse NeuroCult™ NSC Proliferation Supplements (StemCell Technologies, Vancouver, Canada) with 2% bovine serum albumin (Roche, Basel, Switzerland) and 2 μg/ml heparin (Sigma-Aldrich Australia). The following growth factors were also included: 20 ng/ml purified mouse receptor-grade EGF (BD Biosciences Australia) and 10 ng/ml recombinant bovine FGF-2 (Roche). After centrifugation at 100 rcf for 7 minutes, the cells were plated at a density of approximately one hippocampus, SVZ or cortex or four olfactory bulbs per 96-well plate (Falcon/BD Biosciences Australia) with 200 μl neurosphere medium per well.
# The neurosphere growth medium already contained 4.18 mM KCl. […] This level of potassium is around five times that of the normal physiological concentration of potassium, ˜4 mM. Nicardipine (Sigma-Aldrich), when used, was added to a final concentration of 10 μM. BaCl was used as an alternative to KCl in some experiments at a concentration of 1 mM and GABA at 100 μM. Recombinant mouse Wnt3a (R&D Systems) and recombinant mouse prolactin (PRL; R&D Systems) were added instead of KCl in some experiments at concentrations of 1 ng/mL and 2 ng/mL respectively.
# (§1) Primary hippocampal cells were incubated for 10 days, and SVZ, olfactory bulb or cortical cells for 7 days, in humidified 5% CO2 to permit neurosphere formation. The primary neurospheres were then counted and collected for passaging or differentiation. Results of the neurosphere counts were expressed as mean±standard error and statistical analysis was performed using a standard t-Test (two sample assuming equal variance).
# SVZ cells = assay: Primary neurosphere culture, SVZ; assay type: cell-based, mouse; settings: for number of SVZ-derived neurospheres: 1 ng/mL Wnt3a or 2 ng/mL PRL, n=2
# Description: Adult (6-8 week old) male C57/B16 mice were killed by cervical dislocation, their brains immediately removed and the hippocampus, SVZ, olfactory bulb or cortex dissected. The tissue was enzymatically digested with 0.1% trypsin-EDTA (Gibco/Invitrogen, Eugene, Oreg.) for 7 minutes at 37° C., followed by a wash with 0.014% w/v trypsin inhibitor (type I-S from soybean; Sigma-Aldrich Australia, Sydney, Australia) dissolved in Hepes-buffered minimum essential medium (HEM), which consisted of minimum essential medium (Gibco/Invitrogen) supplemented with 16 mM HEPES (Sigma-Aldrich Australia) and 100 units/ml penicillin/streptomycin (Gibco/Invitrogene). The tissue was centrifuged at 100 rcf for 7 minutes, following which the pellet was resuspended in 1 ml neurosphere growth medium, mechanically triturated until smooth, then filtered through a 40 μm cell sieve (Falcon/BD Biosciences Australia, North Ryde, Australia). The neurosphere growth medium consisted of mouse NeuroCult™ NSC Basal Medium plus mouse NeuroCult™ NSC Proliferation Supplements (StemCell Technologies, Vancouver, Canada) with 2% bovine serum albumin (Roche, Basel, Switzerland) and 2 μg/ml heparin (Sigma-Aldrich Australia). The following growth factors were also included: 20 ng/ml purified mouse receptor-grade EGF (BD Biosciences Australia) and 10 ng/ml recombinant bovine FGF-2 (Roche). After centrifugation at 100 rcf for 7 minutes, the cells were plated at a density of approximately one hippocampus, SVZ or cortex or four olfactory bulbs per 96-well plate (Falcon/BD Biosciences Australia) with 200 μl neurosphere medium per well.
# The neurosphere growth medium already contained 4.18 mM KCl. […]
# as §1
# olfactory bulb cells = assay: Primary neurosphere culture, olfactory bulb; assay type: cell-based, mouse; settings: potassium-activated vs control
# Description: (§2) Adult (6-8 week old) male C57/B16 mice were killed by cervical dislocation, their brains immediately removed and the hippocampus, SVZ, olfactory bulb or cortex dissected. The tissue was enzymatically digested with 0.1% trypsin-EDTA (Gibco/Invitrogen, Eugene, Oreg.) for 7 minutes at 37° C., followed by a wash with 0.014% w/v trypsin inhibitor (type I-S from soybean; Sigma-Aldrich Australia, Sydney, Australia) dissolved in Hepes-buffered minimum essential medium (HEM), which consisted of minimum essential medium (Gibco/Invitrogen) supplemented with 16 mM HEPES (Sigma-Aldrich Australia) and 100 units/ml penicillin/streptomycin (Gibco/Invitrogene). The tissue was centrifuged at 100 rcf for 7 minutes, following which the pellet was resuspended in 1 ml neurosphere growth medium, mechanically triturated until smooth, then filtered through a 40 μm cell sieve (Falcon/BD Biosciences Australia, North Ryde, Australia). […]
# as §1
# cortical cells = assay: Primary neurosphere culture, cortex; assay type: cell-based, mouse; settings: depolarization vs control
# Description: as §2, §1
# hippocampal neurospheres = assay: Hippocampal neurosphere passaging; assay type: cell-based, mouse
# Description: Primary neurospheres from the unstimulated hippocampus were also passaged as single spheres.
# Hippocampal neurosphere cultures were initiated by removing 150 μl of the medium from wells containing single neurospheres, treating with 100 μl 0.1% trypsin-EDTA for 2 minutes at room temperature, followed by washing with 100 μl trypsin inhibitor in HEM. The neurospheres were mechanically triturated until dissociated and replated in well plates in 2 ml of complete medium. Neurospheres were passaged every 10 days by centrifuging the neurospheres, removing the medium and incubating in 1 ml of 0.1% trypsin-EDTA for 2 minutes at room temperature. After the addition of an equal volume of trypsin inhibitor, the neurospheres were centrifuged at 100 rcf for 5 minutes and the supernatant removed. Cells were mechanically triturated in 500 μl of complete medium and trypan blue staining was used to evaluate the number of cells, both viable and total number, on a hemocytometer. The passaged cells were then re-plated with complete medium at a density of 1×10^4 cells/cm^2 in tissue culture flasks (Nunc, Rochester, N.Y.) or tissue culture plates (Falcon/BD Biosciences) as appropriate.
# [2] = system: primary hippocampal cells; assay: Microarray analysis after KCl depolarization; assay type: cell-based, mouse; settings: following depolarization, P<0.001
# Description: Hippocampal tissue was dissected and dissociated as described above and incubated either in the presence or absence of 15 mM KCl for 24 hours. Cells were pelleted and total RNA was isolated using the RNeasy mini kit (Qiagen) and quantitated using the Bioanalyzer 2100 (Agilent). aRNA was prepared from 500 ng of RNA using the Message-Amp™-II Biotin Enhanced Kit (Ambion). A total of 15 μg biotinylated aRNA was fragmented and run on a GeneChip mouse Genome 430A 2.0 Array (Affymetrix) in accordance with the manufacturer's instructions.
# [3] = system: latent precursor cell population; assay: Neurosphere culture of FACS-sorted Emx1-GFP / GFAP-GFP cells; assay type: cell-based, mouse
# Description: DCX-GFP, Emx1-GFP and GFAP-GFP mice are from the Mutant Mouse Regional Resource Center, The Gene Expression Nervous System Atlas BAC transgenic project (Gong et al., 2002).
# Brains were collected and processed. GFP^+ve cells were separated by fluorescence-activated cell sorting (FACS) using a FACS Vantage cell sorter (BD Biosciences). A wild-type littermate control was used to determine background fluorescence levels. For primary neurosphere cultures the cells were plated at a density of 500 cells/well in 96-well plates (Falcon/BD Biosciences, San Jose, Calif.) with 0.2 ml complete medium per well. Complete medium consisted of mouse NeuroCult™ NSC Basal Medium plus mouse NeuroCult™ NSC Proliferation Supplements (StemCell Technologies,
# Vancouver, Canada) with 2% bovine serum albumin (Roche, Basel, Switzerland) and 2 μg/ml heparin (Sigma-Aldrich). The following growth factors were also included: 20 ng/ml purified mouse receptor-grade epidermal growth factor (EGF; BD Biosciences Australia) and 10 ng/ml recombinant bovine basic fibroblast growth factor (FGF-2; Roche). Primary cells were incubated for 7 days in humidified 5% CO2 to permit neurosphere formation. The primary neurospheres were then counted and collected for passaging or differentiation. Results of the neurosphere counts were expressed as mean+ or −standard error and statistical analysis was performed using a standard t-Test (two sample assuming equal variance).
# C57BL/6 male mice = assay: Pilocarpine-induced seizures; assay type: in vivo, mouse; settings: 350 mg/kg intraperitoneal
# Description: Seizures were induced in 6-8 week old C57BL/6 male mice by the administration of pilocarpine, a muscarinic cholinergic agonist. Thirty minutes prior to pilocarpine administration, the mice were injected with 2.5 mg/kg of the cholinergic antagonist scopolamine methyl nitrate (Sigma-Aldrich) to reduce peripheral cholinergic effects. They then received intraperitoneal injections of 350 mg/kg pilocarpine hydrochloride (Sigma-Aldrich). […] Seizures were stopped 2 hours after status epilepticus onset, with an intraperitoneal injection of 5 mg/kg diazepam ([…], Parnell Laboratories Sydney, Australia).
# SVZ-derived neurospheres = settings: cited from earlier work
# adult female mice = settings: infusion, cited from earlier work
# [4] = 10 nM and 30 nM PRL in presence of EGF
molecule,measurement,setting,value
"[Ba+2].[Cl-].[Cl-] [BaCl2, barium chloride]",increase in numbers of neurospheres,[1]; 1 mM BaCl2,over 2 fold
"[Cl-].[K+] [KCl, potassium chloride]",increase in number of neurospheres generated,"[1]; 20 mM KCl vs control (4 mM) potassium or sodium osmotic control, adult mouse",over 3 fold
same,"increase in number of neurospheres, stimulated vs control","[1]; 18 month old hippocampus, depolarizing conditions",over 12 fold
same,effect on number of neurospheres generated,[1]; KCl as low as 10 mM and as high as 30 mM,significantly increase the number of neurospheres generated
same,optimal depolarizing level,[1]; KCl dose response assay,15 mM
same,further increase of 33 week HD hippocampal precursors,"[1]; R6/1 Huntington's disease mice, 33 weeks, potassium depolarization in vitro",could not be further increased
same,further stimulation of precursors from mice that underwent SE,[1]; depolarizing levels of potassium added in vitro after status epilepticus,no further stimulatory effect
same,decrease in neurosphere number,"SVZ cells; potassium-induced depolarization, adult SVZ",approx 40%
same,increase in number of olfactory bulb neurospheres,olfactory bulb cells,over 3 fold
same,size of activated olfactory-bulb neurospheres,olfactory bulb cells,significant increase in the size
same,increase in cortex neurosphere number,cortical cells,over 3 fold
same,diameter of stimulated neurospheres capable of long term passage,hippocampal neurospheres; all twenty three,> 110 μm
same,large primary spheres that could be expanded in culture for up to 10 passages,"hippocampal neurospheres; potassium stimulated, standard conditions 0/113",23 out of 64
same,up-regulation of PRL,[2],6.4 fold
same,up-regulation of Wnt3a,[2],14.4 fold
same,SFU,[3]; Emx1+ve cells + KCL,1/37
same,SFU,[3]; Emx1-ve cells + KCL,1/10896
same,SFU,[3]; GFAP+ve cells + KCL,1/127
same,SFU,[3]; GFAP-ve cells + KCL,1/2220
"CC[C@@H]1C(=O)OC[C@@H]1Cc1cncn1C [pilocarpine, pilocarpine hydrochloride]",mice in which seizures were observed,C57BL/6 male mice,70%
same,seizing mice that entered status epilepticus,C57BL/6 male mice,35%
same,time to status epilepticus after injection,C57BL/6 male mice,78 ± 43 min
Wnt3a,generation of very large neurospheres (>250 μm) passaged long-term,[1],generation of a number of the very large neurospheres
same,increase in number of hippocampal neurospheres generated,[1],2 fold
same,number of hippocampal neurospheres,[1],204±66.1 % of control
same,"neurosphere number, aged hippocampus",[1],580±230 % of control
same,number of SVZ-derived neurospheres,SVZ cells,98.5±4.5 % of control
"PRL: recombinant mouse prolactin (PRL; R&D Systems) (protein, UniProt P06879 30-226, looked up) Prolactin: LPICSAGDCQTSLRELFDRVVILSHYIHTLYTDMFIEFDKQYVQDREFMVKVINDCPTSSLATPEDKEQALKVPPEVLLNLILSLVQSSSDPLFQLITGVGGIQEAPEYILSRAKEIEEQNKQLLEGVEKIISQAYPEAKGNGIYFVWSQLPSLQGVDEESKILSLRNTIRCLRRDSHKVDNFLKVLRCQIAHQNNC",generation of very large neurospheres (>250 μm) passaged long-term,[1],generation of a number of the very large neurospheres
same,increase in number of hippocampal neurospheres generated,[1],2 fold
same,number of hippocampal neurospheres,[1],217±13 % of control
same,"neurosphere number, aged hippocampus",[1],254±23 % of control
same,number of SVZ-derived neurospheres,SVZ cells,100±9 % of control
same,effect on number of SVZ-derived neurospheres,SVZ-derived neurospheres; 1 nM PRL,no effect
same,increase in number of neurons per neurosphere,SVZ-derived neurospheres; [4],two-fold
same,increase in numbers of SVZ-derived neurospheres,SVZ-derived neurospheres; [4],up to 35%
same,"number of neurospheres in vitro, prolactin alone","SVZ-derived neurospheres; without EGF, US 2003/0054998",did not significantly increase
same,number of new olfactory interneurons,adult female mice; after 4 weeks,doubled
same,BrdU-labeled cells in the forebrain SVZ,adult female mice; US 2003/0054998,increased
same,number of proliferating cells in hippocampal dentate gyrus,adult female mice,no effect
